From ChEMBL document CHEMBL4007488, “Amphiphilic Indole Derivatives as Antimycobacterial Agents: Structure-Activity Relationships and Membrane Targeting Properties” (J Med Chem, 2017)
Converted amounts (≈) assume the structure as drawn.

Assays:
[1] = tested on: Mycobacterium tuberculosis; assay: Antimycobacterial activity against Mycobacterium tuberculosis H37Rv ATCC 27294 assessed as growth inhibition at 10 uM after 5 days relative to control; type: functional; conditions: H37Rv ATCC 27294, 120 h, read-out: GI
[2] = tested on: Mycolicibacterium smegmatis; assay: Antimycobacterial activity against Mycobacterium smegmatis MC2 155 ATCC 700084 assessed as growth inhibition at 10 uM after 5 days relative to control; type: functional; conditions: MC2 155 ATCC 700084, 120 h, read-out: GI
[3] = Selectivity index, ratio of IC50 for human HepG2 cells to MIC50 for Mycobacterium tuberculosis H37Rv ATCC 27294; type: toxicity; conditions: read-out: Selectivity Index
[4] = Aqueous solubility of compound at pH 7.4 at 25 degC after 24 hrs; type: physicochemical; conditions: buffer
[5] = Half life in rat liver microsomes preincubated for 5 mins followed by NADPH addition measured up to 45 mins by LC-MS analysis; type: ADME, microsome
[6] = Selectivity index, ratio of IC50 for African green monkey Vero E6 cells to MIC50 for Mycobacterium tuberculosis H37Rv ATCC 27294; type: toxicity, Vero C1008; conditions: read-out: Selectivity Index
HepG2 = assay: Cytotoxicity against human HepG2 cells assessed as reduction in cell viability after 48 hrs by MTT assay; type: cell-based; conditions: HepG2, 48 h
Vero C1008 = assay: Cytotoxicity against African green monkey Vero E6 cells assessed as reduction in cell viability after 48 hrs by 96 aqueous one-based assay; conditions: Chlorocebus sabaeus, Vero C1008, 48 h
[7] = tested on: Mycobacterium tuberculosis; assay: Antimycobacterial activity against Mycobacterium tuberculosis H37Rv ATCC 27294 after 5 days by broth dilution method; type: functional; conditions: H37Rv ATCC 27294, 120 h
Lipid bilayer [8] = assay: Binding affinity to DMPG vesicles assessed as melting transition temperature by differential scanning calorimetric analysis (reference value: 21.09 to 23.32 degC)
Lipid bilayer [9] = assay: Binding affinity to DMPG vesicles assessed as change in enthalpy by differential scanning calorimetric analysis

SMILES: CCCCCCCCn1cc(CN(CC)CCC)c2cc(F)ccc21
- inhibition of growth at 10 µM [1]: 99%
- inhibition of growth at 10 µM [2]: 99%

SMILES: CC(C)=CCC/C(C)=C/Cn1cc(CN2CCS(=O)(=O)CC2)c2cc(F)ccc21
- inhibition of growth at 10 µM [1]: 99%
- inhibition of growth at 10 µM [2]: 99%

SMILES: CCCCCCCCn1cc(CN2CCCCC2)c2ccc(F)cc21
- inhibition of growth at 10 µM [1]: 99%
- inhibition of growth at 10 µM [2]: 99%

SMILES: CC(C)=CCC/C(C)=C/Cn1cc(CN2CCCCCC2)c2cc(F)ccc21
- inhibition of growth at 10 µM [1]: 99%
- inhibition of growth at 10 µM [2]: 99%

SMILES: Fc1ccc2c(c1)c(CN1CCCCC1)cn2CCC1CCCCC1
- inhibition of growth at 10 µM [1]: 99%
- inhibition of growth at 10 µM [2]: 99%

SMILES: CCCCCCCCn1cc(CN2CCC(C)CC2)c2cc(OC)ccc21
- inhibition of growth at 10 µM [1]: 99%
- inhibition of growth at 10 µM [2]: 99%

SMILES: CCCCCCCCn1cc(CNC23CC4CC(CC(C4)C2)C3)c2cccc(OC)c21
- inhibition of growth at 10 µM [1]: 99%
- inhibition of growth at 10 µM [2]: 99%

SMILES: CCCCNC(=O)Cn1cc(CN2CCCCC2)c2cc(F)ccc21
- inhibition of growth at 10 µM [1]: 99%
- inhibition of growth at 10 µM [2]: 99%

SMILES: CCCCn1cc(CN2CCCCC2)c2cc(F)ccc21
- inhibition of growth at 10 µM [1]: 99%
- inhibition of growth at 10 µM [2]: 99%

SMILES: CCCCCCCCn1cc(CN2CCC3(CC2)OCCO3)c2cc(OC)ccc21
- inhibition of growth at 10 µM [1]: 99%
- inhibition of growth at 10 µM [2]: 99%

SMILES: CCCCCCCCn1cc(CN2CCC(C)CC2)c2cccc(F)c21
- inhibition of growth at 10 µM [1]: 99%
- inhibition of growth at 10 µM [2]: 99%

SMILES: COc1ccc2c(c1)c(CN1CCCCC1)cn2C/C=C(\C)CCC=C(C)C
- inhibition of growth at 10 µM [1]: 99%
- inhibition of growth at 10 µM [2]: 99%

SMILES: CCCCCCCCn1cc(CN2CCC(C)CC2)c2c(F)cccc21
- selectivity ratio [3]: 5.2
- solubility at 24 h [4]: 23.2 µM (≈ 8.32 µg/mL)
- half-life [5]: 22.8 min
- selectivity ratio [6]: 11.7
- IC50 (HepG2): 15.6 µM
- IC50 (Vero C1008): 35.2 µM
- inhibition of growth at 10 µM [1]: 99%
- MIC50 [7]: 3 µM (≈ 1.08 µg/mL)
- MIC90 [7]: 6 µM (≈ 2.15 µg/mL)
- inhibition of growth at 10 µM [2]: 99%
- Tm (Lipid bilayer [8]): 19.8 °C
- deltaH (Lipid bilayer [9]): -2.69 kcal/mol

SMILES: CC(C)=CCC/C(C)=C/Cn1cc(CN(C)C)c2cc(F)ccc21
- inhibition of growth at 10 µM [1]: 99%
- inhibition of growth at 10 µM [2]: 99%

SMILES: CCN(CC)Cc1cn(C/C=C(\C)CCC=C(C)C)c2ccc(F)cc12
- inhibition of growth at 10 µM [1]: 99%
- inhibition of growth at 10 µM [2]: 99%

SMILES: Fc1ccc2c(c1)c(CN1CCCCC1)cn2Cc1ccccc1
- inhibition of growth at 10 µM [1]: 99%
- inhibition of growth at 10 µM [2]: 99%

SMILES: CC(C)=CCC/C(C)=C/Cn1cc(CN2CCC(C)CC2)c2cc(F)ccc21
- inhibition of growth at 10 µM [1]: 99%
- inhibition of growth at 10 µM [2]: 99%

SMILES: CCCCCCCCn1cc(CN2CCC3(CC2)OCCO3)c2cccc(F)c21
- inhibition of growth at 10 µM [1]: 99%
- inhibition of growth at 10 µM [2]: 99%

SMILES: CCCCCCCCn1cc(CN2CCC3(CC2)OCCO3)c2cccc(OC)c21
- inhibition of growth at 10 µM [1]: 99%
- inhibition of growth at 10 µM [2]: 99%

SMILES: Fc1cccc2[nH]cc(CN3CCCCCC3)c12
- inhibition of growth at 10 µM [1]: 99%
- inhibition of growth at 10 µM [2]: 99%
- Tm (Lipid bilayer [8]): 20.4 °C
- deltaH (Lipid bilayer [9]): -4.83 kcal/mol

SMILES: CCCCCCCCn1cc(CN2CCN(C)CC2)c2cc(F)ccc21
- inhibition of growth at 10 µM [1]: 99%
- inhibition of growth at 10 µM [2]: 99%

SMILES: CCCCCCCCn1cc(CNC2CCCCCC2)c2cc(F)ccc21
- inhibition of growth at 10 µM [1]: 99%
- inhibition of growth at 10 µM [2]: 99%
